Results taken from patent US20080234327A1, “DIHYDROINDAZOLE COMPOUNDS USEFUL IN TREATING IRON DISORDERS” (XENON PHARMACEUTICALS INC., priority 2007, published 2008).

Columns and labels:
DMT1 = target: T1, DMT1 (Homo sapiens, UniProt P49281); assay: DMT1 activity assay (in vitro); assay type: cell-based; conditions: inhibition of DMT1; read-out: IC50 Activity Level
T1 sequence (P49281 1-568): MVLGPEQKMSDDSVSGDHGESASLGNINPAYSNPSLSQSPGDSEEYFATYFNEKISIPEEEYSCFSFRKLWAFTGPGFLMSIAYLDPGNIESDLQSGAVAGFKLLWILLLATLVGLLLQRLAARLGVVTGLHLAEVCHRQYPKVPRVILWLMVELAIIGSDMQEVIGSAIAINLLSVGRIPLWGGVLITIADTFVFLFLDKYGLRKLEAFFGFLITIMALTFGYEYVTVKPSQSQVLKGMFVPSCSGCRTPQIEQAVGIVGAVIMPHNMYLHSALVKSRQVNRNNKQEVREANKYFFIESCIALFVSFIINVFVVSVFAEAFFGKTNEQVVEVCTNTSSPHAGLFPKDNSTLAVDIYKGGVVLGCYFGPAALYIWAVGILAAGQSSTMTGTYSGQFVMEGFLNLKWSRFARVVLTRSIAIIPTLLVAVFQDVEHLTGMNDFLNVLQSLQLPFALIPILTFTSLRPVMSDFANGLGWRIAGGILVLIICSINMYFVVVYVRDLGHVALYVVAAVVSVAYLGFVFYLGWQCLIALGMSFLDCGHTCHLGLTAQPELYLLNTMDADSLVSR
Excerpt: One such protocol involves the screening of chemical agents for ability to modulate the activity of DMT1 thereby identifying it as a modulating agent. The in vitro activity of DMT1 can be measured in cell based assays by either directly measuring iron flux (using a radioactively labelled iron ^55Fe) or by measuring the fluorescence of a cell permeable iron fluorophore such as calcein. Stable cell lines overexpressing DMT1 are exposed to ^55Fe or loaded with calcein and then compound is applied. […] Alternatively, in another format electrophysiological techniques can be used to measure the current or iron or other metals traversing the cell membrane with DMT1 in a Xenopus oocyte or other cell based system (Gunshin et al., Nature, 1997, 31; 388(6641):482-8).
This example discloses various in vitro assay for testing and profiling test agents against DMT1 stably expressed in cells of either an endogenous or recombinant origin. These assays can use stable cell lines overexpressing DMT1 or intestinal cells and intestinal tissue expressing endogenous DMT1. DMT1 function could also be assessed in other cell types that express DMT1. Of greatest relevance would be the erythrocytes (e.g. K562 cells) or hepatocytes (e.g. […]).
DMT1 function can be assessed in a number of ways, including monitoring fluorescence changes of an iron fluorophore (e.g. calcein), monitoring uptake of radiolabelled iron (^55Fe or ^59Fe) (Picard et al., J. Biol. Chem., 2000, 275(46):35738-45 and Wetli et al., Chem. Biol. 2006 September; 13(9):965-72), or by assessing the current or transport of iron and other metals into the cells or tissues using standard electrophysiological techniques (Gunshin et al., Nature, 1997, 388(6641):482-8.).
Variations of these assays involve alterations of incubation times, the iron status of the cells and tissues (which may be modulated by chemical chelators or by harvesting from iron deficient animals), the metal cation detected and the pH of the reaction can generally be made by conventional techniques known to those skilled in the art.

| SMILES | melting point [°C] | IC50 (DMT1) [µM] |
| --- | --- | --- |
| Oc1c2c(nn1-c1ccccn1)CCc1cc(-c3ccc4c(c3)OCO4)ccc1-2 [Example 1.8, 7-benzo[1,3]dioxol-5-yl-2-pyridin-2-yl-4,5-dihydro-2H-benzo[e]indazol-1-ol] | 205 to 206 | 0.1 to 1 |
| COc1ccc2c(c1)CCc1nn(-c3ccccn3)c(O)c1-2 [Example 1.2, 7-methoxy-2-pyridin-2-yl-4,5-dihydro-2H-benzo[e]indazol-1-ol] | 139 to 140 | – |
| COc1ccc2c(c1)-c1c(nn(-c3ccccn3)c1O)CC2 [Example 1.3, 8-methoxy-2-pyridin-2-yl-4,5-dihydro-2H-benzo[e]indazol-1-ol] | 116 to 117 | ≥ 1 |
| O=[N+]([O-])c1ccc(-n2nc3c(c2O)-c2ccccc2CC3)nc1 [Example 1.13, 2-(5-nitropyridin-2-yl)-4,5-dihydro-2H-benzo[e]indazol-1-ol] | 226 to 227 | 0.1 to 1 |
| Oc1c2c(nn1-c1ncccc1C(F)(F)F)CCc1ccccc1-2 [Example 1.12, 2-(3-(trifluoromethyl)pyridin-2-yl)-4,5-dihydro-2H-benzo[e]indazol-1-ol] | 174 to 175 | ≥ 1 |
| N#Cc1ccc(-c2ccc3c(c2)CCc2nn(-c4ccccn4)c(O)c2-3)cc1 [Example 1.9, 4-(1-hydroxy-2-pyridin-2-yl-4,5-dihydro-2H-benzo[e]indazol-7-yl)-benzonitrile] | 274 to 275 | ≥ 1 |
| Oc1c2c(nn1-c1ccc(C(F)(F)F)cn1)CCc1ccccc1-2 [Example 1.10, 2-(5-(trifluoromethyl)pyridin-2-yl)-4,5-dihydro-2H-benzo[e]indazol-1-ol] | 158 to 159 | ≥ 1 |
| Oc1c2c(nn1-c1cc(C(F)(F)F)ccn1)CCc1ccccc1-2 [Example 1.11, 2-(4-(trifluoromethyl)pyridin-2-yl)-4,5-dihydro-2H-benzo[e]indazol-1-ol] | 161 to 162 | 0.1 to 1 |
| Oc1c2c(nn1-c1ccccn1)CCc1ccccc1-2 [Example 1, 2-pyridin-2-yl-4,5-dihydro-2H-benzo[e]indazol-1-ol] | 145 to 146 | – |
| Cc1ccc(-c2ccc3c(c2)CCc2nn(-c4ccccn4)c(O)c2-3)cc1 [Example 1.6, 2-pyridin-2-yl-7-p-tolyl-4,5-dihydro-2H-benzo[e]indazol-1-ol] | 177 to 178 | – |
| N#Cc1ccc2c(c1)CCc1nn(-c3ccccn3)c(O)c1-2 [Example 1.4, 1-hydroxy-2-pyridin-2-yl-4,5-dihydro-2H-benzo[e]indazole-7-carbonitrile] | 232 to 233 | – |
| COc1ccc(-c2ccc3c(c2)CCc2nn(-c4ccccn4)c(O)c2-3)cc1 [Example 1.7, 7-(4-methoxyphenyl)-2-pyridin-2-yl-4,5-dihydro-2H-benzo[e]indazol-1-ol] | 159 to 160 | – |
| Oc1c2c(nn1-c1ccccn1)CCc1cc(Br)ccc1-2 [Example 1.1, 7-bromo-2-pyridin-2-yl-4,5-dihydro-2H-benzo[e]indazol-1-ol] | 164 to 165 | – |

The remaining lines, values ahead:

| melting point [°C] | IC50 (DMT1) [µM] | SMILES |
| --- | --- | --- |
| 156 to 157 | 0.1 to 1 | Cc1ccc(-n2nc3c(c2O)-c2ccccc2CC3)nc1 [Example 2, 2-(5-methylpyridin-2-yl)-4,5-dihydro-2H-benzo[e]indazol-1-ol] |
| 155 to 156 | – | [O-][n+]1ccccc1-n1nc2c(c1O)-c1ccccc1CC2 [Example 3, 2-(1-hydroxy-4,5-dihydro-2H-benzo[e]indazol-2-yl)pyridine 1-oxide] |
| 234 to 235 | – | Oc1c2c(nn1-c1nc3ccccc3s1)CCc1ccccc1-2 [Example 4, 2-(benzo[d]thiazol-2-yl)-4,5-dihydro-2H-benzo[e]indazol-1-ol] |
| 182 to 183 | 0.1 to 1 | COc1ccc2c(c1)CCc1nn(-c3nc4ccccc4s3)c(O)c1-2 [Example 4.1, 2-(benzo[d]thiazol-2-yl)-7-methoxy-4,5-dihydro-2H-benzo[e]indazol-1-ol] |
| 246 to 247 | – | Oc1c2c(nn1-c1nc3ccc(F)cc3s1)CCc1ccccc1-2 [Example 4.3, 2-(6-fluorobenzo[d]thiazol-2-yl)-4,5-dihydro-2H-benzo[e]indazol-1-ol] |
| 218 to 219 | – | Cc1ccc2nc(-n3nc4c(c3O)-c3ccccc3CC4)sc2c1 [Example 4.4, 2-(6-methylbenzo[d]thiazol-2-yl)-4,5-dihydro-2H-benzo[e]indazol-1-ol] |
| 204 to 205 | – | COc1ccc2nc(-n3nc4c(c3O)-c3ccccc3CC4)sc2c1 [Example 4.2, 2-(6-methoxybenzo[d]thiazol-2-yl)-4,5-dihydro-2H-benzo[e]indazol-1-ol] |
| 224 to 225 | – | Cc1cccc2sc(-n3nc4c(c3O)-c3ccccc3CC4)nc12 [Example 4.5, 2-(4-methylbenzo[d]thiazol-2-yl)-4,5-dihydro-2H-benzo[e]indazol-1-ol] |
| > 280 | – | O=C(O)c1ccc2nc(-n3nc4c(c3O)-c3ccccc3CC4)sc2c1 [Example 4.6, 2-(1-hydroxy-4,5-dihydro-2H-benzo[e]indazol-2-yl)benzo[d]thiazole-6-carboxylic acid] |
| 205 to 206 | – | Oc1c2c(nn1-c1nc3ccccc3[nH]1)CCc1ccccc1-2 [Example 6, 2-(1H-benzo[d]imidazol-2-yl)-4,5-dihydro-2H-benzo[e]indazol-1-ol] |
| 80 to 81 | 0.1 to 1 | Oc1c2c(nn1-c1ccccn1)CCCc1ccccc1-2 [Example 7, 2-pyridin-2-yl-2,4,5,6-tetrahydro-2,3-diaza-benzo[e]azulen-1-ol] |
| > 250 | ≥ 1 | CC(C)(C)c1csc(-n2nc3c(c2O)-c2ccccc2CC3)n1.Cl [Example 5, 2-(4-tert-butylthiazol-2-yl)-4,5-dihydro-2H-benzo[e]indazol-1-ol hydrochloride] |
